Assay results published in patent EP1296672B2, “STABLE PHARMACEUTICAL PRODUCT AND FORMULATION” (LEK Pharmaceuticals d.d., priority 2000, dated 2001).

What was measured:
[1] = pH of unstabilized pravastatin Na crystals exposed to air atmosphere in different packagings; format: physicochemical; details: for pH: exposed to air, pH measured in 5% aqueous solution
Protocol: Crystals of pravastatin Na were prepared as follows: […] The resulting clear yellow solution was cooled to 8°C and allowed to stand overnight. Formed radiating clusters of thin, long needle-like crystals were filtered, washed with ethyl acetate (20 ml) and dried. […]

[2] = pH of pravastatin Na crystals exposed to pure carbon dioxide in different packagings; format: physicochemical; details: unstabilized pravastatin Na, carbon dioxide atmosphere, 5% aqueous solution
Protocol: Therefore the samples, in case of experiments where the correspondingly stabilised pravastatin was used, were exposed to the atmosphere of pure carbon dioxide, so the changes in pH become evident in a relatively short period of time such as a day or two.
The crystals were formed by addition of 400 ml of ethyl acetate containing 2% of water.

[3] = Protocol: In Fig. 1a, a HPLC chromatogram of a freshly perpared sample of pravastating Na is shown. The same pravastating Na was exposed to carbon dioxide atmosphere for one hour, and then a further HPLC chromatogram was prepared (Fig. 1b).

`CC[C@H](C)C(=O)O[C@H]1C[C@H](O)C=C2C=C[C@H](C)[C@H](CC[C@@H](O)C[C@@H](O)CC(=O)[O-])[C@H]21.[Na+]` [1a, pravastatin Na] gave a pH ([1]; time 0 hours) of 8.3 and a pH ([1]; time 24 hours) of 7.6.

With `CC[C@H](C)C(=O)O[C@H]1C[C@H](O)C=C2C=C[C@H](C)[C@H](CC[C@@H](O)C[C@@H](O)CC(=O)[O-])[C@H]21.[Na+]` [1b, pravastatin Na] the pH ([1]; time 0 hours) was 8.3 and the pH ([1]; time 24 hours) was 7.9.

With `CC[C@H](C)C(=O)O[C@H]1C[C@H](O)C=C2C=C[C@H](C)[C@H](CC[C@@H](O)C[C@@H](O)CC(=O)[O-])[C@H]21.[Na+]` [2a, pravastatin Na] the pH ([2]; time 0 h) was 7.60, the pH ([2]; time 1 h) was 7.30 and the pH ([2]; time 5 h) was 7.14. The pH ([2]; time 70 h) was 7.14.

For `CC[C@H](C)C(=O)O[C@H]1C[C@H](O)C=C2C=C[C@H](C)[C@H](CC[C@@H](O)C[C@@H](O)CC(=O)[O-])[C@H]21.[Na+]` [pravastatin Na], the “degradation products (HPLC peaks)” value [3] was “two different peaks in front of and three peaks after the peak of pravastatin Na appear”, the pH of crystals ([1]; after one day) was 7.6 and the pH of crystals ([1]; freshly prepared crystals) was 8.3.
